From ChEMBL document CHEMBL1122870, “Synthesis and LTD4 antagonist activity of 2-norleukotriene analogues” (1985) come the findings set out here.

Holding throughout (type): functional
The species named for assay [1] is Cavia porcellus. Kind of assay: Evaluated for antagonist activity on Guinea Pig Tracheal Spiral Strips relative to Kb= 0.1 uM for FPL. The note with it: Trachea.
The species entered for assay [2] is Cavia porcellus. Kind of assay: Evaluated for antagonist activity on Guinea Pig Tracheal Spiral Strips relative to Kb= 0.1 uM for FPL; Partial agonist. The note with it: Trachea, filed as partial agonist.
Assay [3] is filed under the species Cavia porcellus. Kind of assay: Evaluated for antagonist activity on Guinea Pig Tracheal Spiral Strips relative to Kb= 0.1 uM for FPL; partial agonist. The note with it: Trachea.
The species named for assay [4] is Cavia porcellus. Kind of assay: Evaluated for antagonist activity on Guinea Pig Tracheal Spiral Strips relative to Kb= 8.1 uM Vs LTE4. The note with it: Trachea.
The species entered for assay [5] is Cavia porcellus. Kind of assay: Evaluated for antagonist activity on Guinea Pig Tracheal Spiral Strips relative to Kb= 0.1 uM for FPL; Inactive (neither agonist nor antagonist activity observed). The note with it: Trachea.

The source made the active and inactive calls. The rule behind the calls is not given here.

With `CCCCCCCCCCCC/C=C\[C@@H](SC[C@H](N)C(=O)NCC(=O)O)[C@@H](O)CCC(=O)O`, the Kb (usually the affinity of an antagonist, worked out from how it opposes an agonist) in the assay filed under Cavia porcellus [1] worked out at 10 µM.
For the compound `CCCCCCCCCCCC/C=C\[C@H](SC[C@H](N)C(=O)NCC(=O)O)[C@H](O)CCCO`, in the assay filed under Cavia porcellus [1], the antagonist equilibrium constant (Kb) is 14 µM.
Still for that read-out and setting: for `CCCCCCCCCCCC/C=C\[C@H](SC[C@H](N)C(=O)NCC(=O)O)[C@H](O)CCC(=O)O` the value was 6.3 µM.
As for `CCCCCCCCCCCC/C=C\[C@H](SC[C@H](N)C(=O)NCCO)[C@H](O)CCCO`, in the assay filed under Cavia porcellus [2], the Kb result is “Partial agonist”.
In the assay filed under Cavia porcellus [1], `CCCCCCCCCCCC/C=C\[C@H](SC[C@H](N)C(=O)NCC(N)=O)[C@H](O)CCC(=O)O` showed a Kb of 3.5 µM.
In the assay filed under Cavia porcellus [3], `CCCCCCCCCCCC/C=C/[C@H](SC[C@H](N)C(=O)NCC(=O)O)[C@H](O)CCC(=O)O` yielded an antagonist dissociation constant (Kb) of 20 µM.
`CCCCCCCCCCCC/C=C\[C@H](SC[C@H](N)C(=O)O)[C@H](O)CCC(=O)O` gave a Kb in the assay listed under Cavia porcellus [4] of 14 µM.
For the compound `CCCCCCC/C=C\[C@H](SC[C@H](N)C(=O)NCC(=O)O)[C@H](O)CCC(=O)O`, the Kb entry in the assay filed under Cavia porcellus [5] was “inactive”.
In the case of `CCCCCCCCCCCCCCCCC/C=C\[C@H](SC[C@H](N)C(=O)NCC(=O)O)[C@H](O)CCC(=O)O`, the Kb entry in the assay listed under Cavia porcellus [5] was “inactive”.
Compound `CCCCCCCCCCCC/C=C\[C@@H](SC[C@H](N)C(=O)O)[C@@H](O)CCC(=O)O` displayed a Kb in the assay filed under Cavia porcellus [1] of 3.4 µM.
Same read-out and setting: the figure for `CCCCCCCCCCCC/C=C\[C@H](SC[C@H](N)C(=O)NCC(=O)O)[C@H](O)CCC(N)=O` is 7.2 µM.
Take `CCCCCCCCCCCC/C=C/[C@H](SC[C@H](N)C(=O)NCC(=O)O)[C@@H](O)CCC(=O)O`: the Kb in the assay filed under Cavia porcellus [3] was found to be 40 µM.
